Results published in patent publication US20220323406A1, “METHODS AND COMPOSITIONS FOR DIFFERENTIATING STEM CELLS” (Massachusetts Institute of Technology, priority 2019, published 2022).

Columns and labels:
ENR+CD organoids = test: Primary screen: ATP (CellTiter-Glo 3D, CTG) cell number/viability, 2.5-D 384-well ENR+CD organoids; conditions: primary screen; for Dose.FC.CTG: FC relative to plate median;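 on all read-outs here: compounds given at plating and again on day 3 over a 6-day differentiation from ENR+CV stem-cell-enriched precursors, ATP measured on day 6, plate median as control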
[1] = test system: ENR+CD organoids (ISC to Paneth cell differentiation); test: Primary screen: CCh-stimulated lysozyme secretion LYZ.S, 2.5-D 384-well ENR+CD organoid differentiation; assay type: cell-based, mouse; conditions: primary screen; for Dose.FC.LYZ.S: FC relative to plate median
Excerpt: (§1) High-throughput screening.

[2] = test system: ENR+CD organoids (ISC to Paneth cell differentiation); test: Primary screen: basal (non-stimulated) lysozyme secretion LYZ.NS, 2.5-D 384-well ENR+CD organoid differentiation; assay type: cell-based, mouse; conditions: primary screen; for Dose.FC.LYZ.NS: FC relative to plate median; for Z.LYZ.NS: standard z score
Excerpt: as §1

| SMILES | Dose.FC.CTG (log2 fold change) (ENR+CD organoids; dose 0.08 uM) | Z.CTG (standard z score) (ENR+CD organoids; dose 0.08 uM) | Dose.FC.CTG (log2 fold change) (ENR+CD organoids; dose 0.40 uM) | Z.CTG (standard z score) (ENR+CD organoids; dose 0.40 uM) | Dose.FC.CTG (log2 fold change) (ENR+CD organoids; dose 2.00 uM) | Z.CTG (standard z score) (ENR+CD organoids; dose 2.00 uM) | Dose.FC.CTG (log2 fold change) (ENR+CD organoids; dose 10.00 uM) | Z.CTG (standard z score) (ENR+CD organoids; dose 10.00 uM) | Dose.FC.LYZ.S (log2 fold change) ([1]; dose 0.08 uM) | Dose.FC.LYZ.S (log2 fold change) ([1]; dose 0.40 uM) | Dose.FC.LYZ.S (log2 fold change) ([1]; dose 2.00 uM) | Dose.FC.LYZ.S (log2 fold change) ([1]; dose 10.00 uM) | Dose.FC.LYZ.NS (log2 fold change) ([2]; dose 0.08 uM) | Z.LYZ.NS (standard z score) ([2]; dose 0.08 uM) | Dose.FC.LYZ.NS (log2 fold change) ([2]; dose 0.40 uM) | Z.LYZ.NS (standard z score) ([2]; dose 0.40 uM) | Dose.FC.LYZ.NS (log2 fold change) ([2]; dose 2.00 uM) | Z.LYZ.NS (standard z score) ([2]; dose 2.00 uM) | Dose.FC.LYZ.NS (log2 fold change) ([2]; dose 10.00 uM) | Z.LYZ.NS (standard z score) ([2]; dose 10.00 uM) | other results |
| --- | --- | --- | --- | --- | --- | --- | --- | --- | --- | --- | --- | --- | --- | --- | --- | --- | --- | --- | --- | --- | --- |
| COc1cc2c(cc1OC)[C@@H]1Cc3ccc(OC)c(OC)c3CN1CC2 [Rotundine] |  |  |  |  |  |  |  |  |  |  |  |  |  |  |  |  |  |  |  |  | Dose.FC.CTG (ENR+CD organoids; dose 0.08 uM): 0.359 log2 fold change; Dose.FC.CTG (ENR+CD organoids; dose 0.40 uM): 0.343 log2 fold change; Dose.FC.CTG (ENR+CD organoids; dose 2.00 uM): 0.190 log2 fold change; Dose.FC.CTG (ENR+CD organoids; dose 10.00 uM): 0.227 log2 fold change; Dose.FC.LYZ.S ([1]; dose 0.08 uM): 0.151 log2 fold change; Dose.FC.LYZ.S ([1]; dose 0.40 uM): 0.049 log2 fold change; Dose.FC.LYZ.S ([1]; dose 2.00 uM): 0.080 log2 fold change; Dose.FC.LYZ.S ([1]; dose 10.00 uM): 0.095 log2 fold change; Dose.FC.LYZ.NS ([2]; dose 0.08 uM): 0.124 log2 fold change; Z.LYZ.NS ([2]; dose 0.08 uM): 1.082; Dose.FC.LYZ.NS ([2]; dose 0.40 uM): 0.032 log2 fold change; Z.LYZ.NS ([2]; dose 0.40 uM): 0.282; Dose.FC.LYZ.NS ([2]; dose 2.00 uM): 0.072 log2 fold change; Z.LYZ.NS ([2]; dose 2.00 uM): 0.623; Dose.FC.LYZ.NS ([2]; dose 10.00 uM): 0.126 log2 fold change; Z.LYZ.NS ([2]; dose 10.00 uM): 1.100 |
| COC(=O)CCSCc1ccc(-c2onc(C)c2NC(=O)OC(C)c2ccccc2Cl)cc1 (centres unmarked) [Ki16198] | −0.011 | −0.026 | −0.108 | −0.258 | −0.033 | −0.078 | 0.022 | 0.052 | 0.027 | 0.031 | −0.015 | −0.037 | 0.005 | 0.044 | −0.009 | −0.076 | 0.060 | 0.519 | −0.103 | −0.899 |  |
| CCCCc1nc(Cl)c(CO)n1Cc1ccc(-c2ccccc2-c2nnn[n-]2)cc1.[K+] [Losartan Potassium (DuP 753)] | −0.152 | −0.362 | −0.175 | −0.418 | −0.081 | −0.193 | −0.137 | −0.328 | −0.017 | 0.027 | −0.080 | −0.025 | 0.052 | 0.449 | 0.038 | 0.329 | −0.042 | −0.362 | 0.062 | 0.540 |  |
| O=C(Nc1ccccc1)N1CCN(c2nc(-c3ccccc3)ns2)CC1 [JNJ-1661010] | −0.094 | −0.225 | −0.262 | −0.625 | −0.055 | −0.131 | −0.145 | −0.346 | 0.135 | 0.041 | −0.063 | −0.068 | 0.122 | 1.066 | 0.075 | 0.653 | 0.103 | 0.897 | 0.047 | 0.406 |  |
| CCc1c2c(nc3ccc(OC(=O)N4CCC(N5CCCCC5)CC4)cc13)-c1cc3c(c(=O)n1C2)COC(=O)[C@]3(O)CC [Irinotecan] | −0.111 |  | −0.784 |  | −0.785 |  | −1.235 |  | −0.004 | −0.145 | −0.247 | −0.251 | −0.031 | −0.272 | −0.072 | −0.630 | −0.170 | −1.476 | −0.163 | −1.417 |  |
